These results are taken from US20160376247A1, “NOVEL TEMPERATURE-SENSITIVE FLUORESCENT COMPOUND AND APPLICATION THEREOF” (SHANGHAI INSTITUTES FOR BIOLOGICAL SCIENCES, CHINESE …, priority 2013, published 2016).

For data set [1] the following is noted: literature [2, 3]; cited from earlier work.
Data set [2] can be described thus: Temperature dependence of Stokes luminescence intensity of dye in solution. The data set is classed as physicochemical. The conditions noted are these: for temperature-sensitive properties of Stokes luminescence: 10 μM dye, emission spectra at different temperatures. Here is the method: Concentration of dye is 10 μM, and solvent is 150 mM KCl solution, pH 7.5; (d) Stokes emission spectra (excited at 530 nm) of 10 μM RhBME (dissolved in 150 mM KCl solution at pH 7.5) at different temperatures (from bottom to top, 45, 35, 25, 15, 5[…] respectively), and Stokes luminescence intensity is normalized against peak at 25[…].

Data set [3] is described as follows: Temperature dependence of anti-Stokes luminescence intensity of dye in solution. The following applies: 10 μM in 150 mM KCl pH 7.5, excited at 633 nm, 5-45 degrees. The data set is classed as physicochemical. Here is the method: Concentration of dye is 10 μM, and solvent is 150 mM KCl solution, pH 7.5; (d) anti-Stokes emission spectra (excited at 633 nm) of 10 μM Rh101ME (dissolved in 150 mM KCl solution at pH 7.5) at different temperatures (from top to bottom, 45, 35, 25, 15, 5[…] respectively), and anti-Stokes luminescence intensity is normalized against peak at 25[…].
From the spectrogram of Rh101 and derivatives thereof (FIG. 1a), it can be seen that there is no significant difference in spectroscopic characteristics between the compound of formula II (Rh101AM) or the compound of formula IV (Rh101ME) and Rh101.

The conditions of data set [4]: literature [2, 3]; cited from earlier work. This is another data set of the same source.

As for `CCN(CC)c1ccc2c(-c3ccccc3C(=O)O)c3ccc(=[N+](CC)CC)cc-3oc2c1` [RhB, Rhodamine B], the “Stokes emission intensity vs temperature” value in data set [1] is listed as “decreased as the temperature increases”.

For `N#CC1=c2cc3c4c(c2Oc2c1cc1c5c2CCCN5CCC1)CCC[N+]=4CCC3` [Rh800], in data set [2], the “temperature-sensitive properties of Stokes luminescence” value (“temperature-sensitive properties” below) was “does not possess temperature-sensitive properties at a wavelength of less than 700 nm”.

Regarding “tetramethylrhodamine methyl ester [TMRM]”, in data set [2], the “temperature-sensitive properties” value is reported as “possess temperature-sensitive properties”.

Turning to `CCCCCCCCCCCCCCCCOC(=O)c1ccccc1-c1c2ccc(=[N+](CC)CC)cc-2oc2cc(N(CC)CC)ccc12` [RhB-C16], the “temperature-sensitive properties” value in data set [2] is recorded as “possesses temperature-sensitive properties”.

In the case of `CCN(CC)c1ccc2c(-c3ccccc3C(=O)OCOC(C)=O)c3ccc(=[N+](CC)CC)cc-3oc2c1` [RhBAM], the “Stokes luminescence intensity vs temperature” value in data set [2] was “decreases as the temperature increases”.

With `N=c1ccc2c(-c3ccccc3C(=O)O)c3ccc(N)cc3oc-2c1` [Rh110], in data set [2], the “temperature-sensitive properties” value was “does not possess temperature-sensitive properties”.

As for `CC(=O)OCOC(=O)c1ccccc1C1=c2cc3c4c(c2Oc2c1cc1c5c2CCCN5CCC1)CCC[N+]=4CCC3` [Rh101AM], the “Stokes luminescence intensity vs temperature” value in data set [2] is reported as “does not substantially change as the temperature changes”.

Take `CCN(CC)c1ccc2c(-c3ccccc3C(=O)OC)c3ccc(N(CC)CC)cc3[o+]c2c1.[Cl-]` [RhBME]: in data set [2], the “Stokes luminescence intensity vs temperature” value is given as “decreases as the temperature increases”.

Turning to `O=C(O)c1ccccc1C1=c2cc3c4c(c2Oc2c1cc1c5c2CCCN5CCC1)CCC[N+]=4CCC3` [Rh101, rhodamine 101], the “anti-Stokes luminescence intensity vs temperature” value in data set [3] was “increases as the temperature increases”. The “temperature-sensitive properties” value in data set [2] is “does not possess temperature-sensitive properties”. For the same compound, the “Anti-Stokes emission intensity vs temperature” value in data set [4] is listed as “enhanced as the temperature increases”.

As for `CCN(CC)c1ccc2c(-c3ccccc3C(=O)OCc3ccc(C(=O)Nc4cc5cccnc5c5ncccc45)cc3)c3ccc(=[N+](CC)CC)cc-3oc2c1` [RPA, Rhodamine B-[(1,10-phenanthrolin-5-yl)aminocarbonyl]benzyl ester], the “temperature-sensitive properties” value in data set [2] is reported as “possess temperature-sensitive properties”.
